In patent US7169927B2, “Indole-amide derivatives and their use as glycogen phosphorylase inhibitors” (AstraZeneca AB, priority 2002, dated 2007):
Each block holds one molecule with its values, some of them ahead of it.

Columns and labels:
conscious dogs = settings: following a glucagon challenge; cited from earlier work
hepatocytes = settings: cited from earlier work; for glucose output: glucagon stimulated
db/db and ob/ob mice = settings: cited from earlier work
[1] = molecular target: T1, Human recombinant liver glycogen phosphorylase a (hrl GPa) (Homo sapiens, UniProt P06737); assay: Glycogen phosphorylase a inhibition, glycogen degradation (multienzyme coupled assay, NADH fluorescence); type: biochemical; settings: glycogen degradation direction
T1 sequence (P06737 1-847): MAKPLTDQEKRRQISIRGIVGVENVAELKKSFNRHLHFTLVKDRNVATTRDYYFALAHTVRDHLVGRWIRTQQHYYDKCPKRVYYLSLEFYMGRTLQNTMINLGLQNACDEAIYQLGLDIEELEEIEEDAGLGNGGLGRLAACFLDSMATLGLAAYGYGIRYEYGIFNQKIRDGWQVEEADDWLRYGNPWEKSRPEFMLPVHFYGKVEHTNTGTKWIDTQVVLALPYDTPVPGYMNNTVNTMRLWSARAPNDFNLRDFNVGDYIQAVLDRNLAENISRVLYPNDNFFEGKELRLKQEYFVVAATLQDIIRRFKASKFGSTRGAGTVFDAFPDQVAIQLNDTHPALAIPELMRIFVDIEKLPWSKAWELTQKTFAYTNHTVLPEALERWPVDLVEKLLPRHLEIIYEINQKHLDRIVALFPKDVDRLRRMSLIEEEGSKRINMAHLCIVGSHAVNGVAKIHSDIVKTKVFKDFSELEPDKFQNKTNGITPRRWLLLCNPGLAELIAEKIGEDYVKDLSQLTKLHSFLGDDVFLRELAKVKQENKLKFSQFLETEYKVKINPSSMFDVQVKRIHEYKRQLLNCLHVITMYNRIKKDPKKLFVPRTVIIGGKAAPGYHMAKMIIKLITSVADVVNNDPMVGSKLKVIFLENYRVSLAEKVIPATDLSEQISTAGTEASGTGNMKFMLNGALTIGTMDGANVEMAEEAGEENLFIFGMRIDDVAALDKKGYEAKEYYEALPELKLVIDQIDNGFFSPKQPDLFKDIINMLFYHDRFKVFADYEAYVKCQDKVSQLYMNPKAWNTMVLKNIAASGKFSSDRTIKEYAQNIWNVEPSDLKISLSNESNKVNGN
Protocol: The activity of the compounds is alternatively determined by measuring the inhibitory effect of the compounds on glycogen degradation, the production of glucose-1-phosphate from glycogen is monitored by the multienzyme coupled assay, as described in EP 0 846 464 A2, general method of Pesce et al (Pesce, M A, Bodourian, S H, Harris, R C, and Nicholson, J F (1977) Clinical Chemistry 23, […]). The reactions were in 384well microplate format in a volume of 50 μl. The change in fluorescence due to the conversion of the co-factor NAD to NADH is measured at 340 nm excitation, 465 nm emission in a Tecan Ultra Multifunctional Microplate Reader. The reaction is in 50 mM HEPES, 3.5 mM KH2PO4, 2.5 mM MgCl2, 2.5 mM ethylene glycol-bis(b-aminoethyl ether) N,N,N′N′tetraacetic acid, 100 mM KCl, 8 mM D-(+)-glucose pH7.2, containing 0.5 mM dithiothreitol, the assay buffer solution. Human recombinant liver glycogen phosphorylase a (hrl GPa) 20 nM is pre-incubated in assay buffer solution with 6.25 mM NAD, 1.25 mg type III glycogen at 1.25 mg ml^−1 the reagent buffer, for 30 minutes. […] The non-inhibited activity of GPa is measured in the presence of 10 μl 5% DMSO in assay buffer solution and maximum inhibition measured in the presence of 5 mgs ml^−1 N-ethylmaleimide. […] Relative Fluoresence Units (RFUs) are measured at 340 nm excitation, 465 nm emission. […]

SMILES: CCN1C(C)=C(C(=O)OC(C)C)C(c2ccccc2Cl)C2=C1COC2=O (stereo not drawn) [Bay R 3401]
arterial plasma glucose (conscious dogs): reduced significantly | hepatic glucose output (conscious dogs): reduced significantly

SMILES: CN(C)C(=O)[C@H](O)[C@H](Cc1ccccc1)NC(=O)c1cc2cc(Cl)ccc2[nH]1 [CP91149]
glucagon stimulated glycogenolysis (hepatocytes): reduce | glucose output (hepatocytes): reduce | plasma glucose concentration (db/db and ob/ob mice): reduced, in a dose related manner

SMILES: O=C(N[C@@H](Cc1ccc(F)cc1)C(=O)N1CCC(O)CC1)c1cc2cc(Cl)ccc2[nH]1 [CP320626]
glucagon stimulated glycogenolysis (hepatocytes): reduce | glucose output (hepatocytes): reduce | plasma glucose concentration (db/db and ob/ob mice): reduced, in a dose related manner

IC50 [1]: 4.6 µM
SMILES: Cc1csc(NC(=O)CN2C(=O)C(NC(=O)c3cc4cc(Cl)ccc4[nH]3)Cc3ccccc32)n1 (stereo not drawn) [Example 14, 5-chloro-N-(1-{2-[(4-methyl-1,3-thiazol-2-yl)amino]-2-oxoethyl}-2-oxo-1,2,3,4-tetrahydroquinolin-3-yl)-1H-indole-2-carboxamide]
